Laboratory results published in patent US9655884B2, “Antiparasitic use of isoxazoline compounds” (Intervet Inc., priority 2013, dated 2017).

Tested on: adult fleas (C. felis)
Assay: In vitro membrane feeding exposure to assess flea reproduction
Design: species or system Ctenocephalides felis
Experimental: A membrane feeding method [Wade S E, Georgi J R. Survival and reproduction of artificially fed cat fleas, Ctenocephalides felis Bouché (Siphonaptera: Pulicidae). J Med Entomol 1988, 25: 186-190.] was modified to assess the impact of fluralaner exposure on flea reproduction. Defibrinated sheep blood was prepared in a series of dilutions with fluralaner to obtain concentrations between 50.0 and 0.09 ng/mL. These test solutions were prepared twice and each preparation was tested in duplicate resulting in a total of 4 replicates per concentration, along with a fluralaner negative solvent control (a solvent concentration equivalent to that of the highest concentrated fluralaner test solution) and an untreated control.
Unfed adult fleas (C. felis; 20 males and 20 females) were placed into a plastic unit that was then closed with a gauze lid. A grid inside the plastic unit divided the unit into 2 chambers, an upper chamber for flea feeding and a lower chamber for egg collection. Test or control blood preparations (2 ml) were placed in an artificial membrane closed glass tube that was then placed on the plastic unit as the food source. Feeding units were incubated (38° C. and 60% RH) for 10 days. Test and negative control blood preparations were freshly prepared and exchanged (on days 1, 3, 5, and 8) to permit continuous flea feeding. Fleas were transferred into fresh plastic units on Days 5 and 8 to facilitate egg collection. Collected eggs were mixed with flea nourishment medium and incubated (28° C. and 80% RH) in darkness for 22 (±3) days to enable flea development. Parameters recorded were flea survival, oviposition control, egg hatchability, pupa control, flea-emergence control and reproduction inhibition.

[1] = 0.09 ng/mL in blood, exposure day 3
[2] = 0.09 ng/mL in blood, exposure day 4
[3] = 0.09 ng/mL in blood, exposure day 5
[4] = 0.09 ng/mL in blood, exposure day 8
[5] = 0.09 ng/mL in blood, exposure day 9
[6] = 0.09 ng/mL in blood, exposure day 10
[7] = 0.19 ng/mL in blood, exposure day 3
[8] = 0.19 ng/mL in blood, exposure day 4
[9] = 0.19 ng/mL in blood, exposure day 5
[10] = 0.19 ng/mL in blood, exposure day 8
[11] = 0.19 ng/mL in blood, exposure day 9
[12] = 0.19 ng/mL in blood, exposure day 10
[13] = 0.39 ng/mL in blood, exposure day 3
[14] = 0.39 ng/mL in blood, exposure day 4
[15] = 0.39 ng/mL in blood, exposure day 5
[16] = 0.39 ng/mL in blood, exposure day 8
[17] = 0.39 ng/mL in blood, exposure day 9
[18] = 0.39 ng/mL in blood, exposure day 10
[19] = 0.78 ng/mL in blood, exposure day 3
[20] = 0.78 ng/mL in blood, exposure day 4
[21] = 0.78 ng/mL in blood, exposure day 5
[22] = 0.78 ng/mL in blood, exposure day 8
[23] = 0.78 ng/mL in blood, exposure day 9
[24] = 0.78 ng/mL in blood, exposure day 10
[25] = 1.56 ng/mL in blood, exposure day 3
[26] = 1.56 ng/mL in blood, exposure day 4
[27] = 1.56 ng/mL in blood, exposure day 5
[28] = 1.56 ng/mL in blood, exposure day 8
[29] = 1.56 ng/mL in blood, exposure day 9
[30] = 1.56 ng/mL in blood, exposure day 10

SMILES: Cc1cc(C2=NOC(c3cc(Cl)cc(Cl)c3)(C(F)(F)F)C2)ccc1C(=O)NCC(=O)NCC(F)(F)F (centres unmarked) [fluralaner, 4-[5-(3,5-Dichlorophenyl)-5-trifluoromethyl-4,5-dihydroisoxazol-3-yl]-2-methyl-N-[(2,2,2-trifluoro-ethylcarbamoyl)-methyl]-benzamide]
- Oviposition Control (0.09 ng/mL in blood, arithmetic mean of exposure days): 7.9%
- Flea Survival (0.09 ng/mL in blood, exposure day 2): 100%
- Flea Survival [1]: 100%
- Oviposition Control [1]: 0%
- Flea Survival [2]: 100%
- Oviposition Control [2]: 11.3%
- Flea Survival [3]: 100%
- Oviposition Control [3]: 10.9%
- Flea Survival [4]: 100%
- Oviposition Control [4]: 16.7%
- Flea Survival [5]: 100%
- Oviposition Control [5]: 0.3%
- Flea Survival [6]: 100%
- Oviposition Control [6]: 8.1%
- Oviposition Control (0.19 ng/mL in blood, arithmetic mean of exposure days): 9.2%
- Flea Survival (0.19 ng/mL in blood, exposure day 2): 100%
- Flea Survival [7]: 100%
- Oviposition Control [7]: 0%
- Flea Survival [8]: 100%
- Oviposition Control [8]: 5.1%
- Flea Survival [9]: 100%
- Oviposition Control [9]: 21.0%
- Flea Survival [10]: 100%
- Oviposition Control [10]: 15.1%
- Flea Survival [11]: 100%
- Oviposition Control [11]: 0%
- Flea Survival [12]: 100%
- Oviposition Control [12]: 13.9%
- Oviposition Control (0.39 ng/mL in blood, arithmetic mean of exposure days): 16.1%
- Flea Survival (0.39 ng/mL in blood, exposure day 2): 100%
- Flea Survival [13]: 100%
- Oviposition Control [13]: 6.72%
- Flea Survival [14]: 100%
- Oviposition Control [14]: 22.8%
- Flea Survival [15]: 100%
- Oviposition Control [15]: 23.2%
- Flea Survival [16]: 100%
- Oviposition Control [16]: 23.8%
- Flea Survival [17]: 100%
- Oviposition Control [17]: 0%
- Flea Survival [18]: 98.7%
- Oviposition Control [18]: 20.3%
- Oviposition Control (0.78 ng/mL in blood, arithmetic mean of exposure days): 9.4%
- Flea Survival (0.78 ng/mL in blood, exposure day 2): 100%
- Flea Survival [19]: 100%
- Oviposition Control [19]: 8.7%
- Flea Survival [20]: 100%
- Oviposition Control [20]: 3.0%
- Flea Survival [21]: 100%
- Oviposition Control [21]: 13.8%
- Flea Survival [22]: 100%
- Oviposition Control [22]: 12.5%
- Flea Survival [23]: 100%
- Oviposition Control [23]: 0%
- Flea Survival [24]: 100%
- Oviposition Control [24]: 18.5%
- Oviposition Control (1.56 ng/mL in blood, arithmetic mean of exposure days): 21.1%
- Flea Survival (1.56 ng/mL in blood, exposure day 2): 100%
- Flea Survival [25]: 100%
- Oviposition Control [25]: 0%
- Flea Survival [26]: 99.4%
- Oviposition Control [26]: 0%
- Flea Survival [27]: 99.1%
- Oviposition Control [27]: 17.3%
- Flea Survival [28]: 93.9%
- Oviposition Control [28]: 49.8%
- Flea Survival [29]: 92.9%
- Oviposition Control [29]: 30.1%
- Flea Survival [30]: 90.3%
- Oviposition Control [30]: 29.2%
- Oviposition Control (3.13 ng/mL in blood, arithmetic mean of exposure days): 50.5%
